ChEMBL document CHEMBL1152417, “The identification and optimisation of novel and selective diamide neuropeptide Y Y2 receptor antagonists” (Bioorg Med Chem Lett, 2009)

Test system: Brain
Assay: Drug level in rat brain assessed as tissue binding
Format: ADME, tissue-based

SMILES | Brain tissue binding (percent bound) [%]
O=C(Cc1ccccc1)Nc1ccc(N2CCN(C(=O)c3ccccc3)CC2)c(Cl)c1 | 99
CC(C)(C(=O)Nc1ccc(N2CCN(C(=O)c3ccccc3)CC2)c(Cl)c1)c1ccccc1 | 99.5
O=C(Nc1ccc(N2CCN(C(=O)c3ccccc3)CC2)c(Cl)c1)C(c1ccccc1)c1ccccn1 (racemic) | 99.7
